Experimental data: ChEMBL document CHEMBL1154131, “Bioactive diterpenes and other constituents of Croton steenkampianus” (J Nat Prod, 2008)
≈ marks a conversion by molar mass, not a printed value.

Key:
[1] = test system: Vero; assay: Cytotoxicity against african green monkey Vero cells by MTT assay; type: cell-based; conditions: Chlorocebus sabaeus
[2] = test system: Plasmodium falciparum; assay: Antiplasmodial activity against chloroquine-resistant Plasmodium falciparum Dd2; type: functional, organism-based
[3] = test system: Plasmodium falciparum; assay: Antiplasmodial activity against chloroquine-susceptible Plasmodium falciparum D10; type: functional, organism-based

Compound | IC50 [1] [µg/mL] | IC50 [2] [µg/mL] | IC50 [3] [µg/mL]
CCN(CC)CCCC(C)Nc1ccnc2cc(Cl)ccc12 (stereo not given) [CHLOROQUINE] | 48.5 (≈ 152 µM) | – | –
O=c1c(O)c(-c2ccc(O)c(O)c2)oc2cc(O)cc(O)c12 [QUERCETIN] | 110 (≈ 364 µM) | 2.4 (≈ 7.94 µM) | –
COc1ccc(-c2oc3cc(O)cc(O)c3c(=O)c2O)cc1O [TAMARIXETIN] | 170 (≈ 538 µM) | – | 1.1 (≈ 3.48 µM)
